Data reported in patent US20260207581A1, “Small Molecule Inhibitor for Inflammatory Pain Inhibition” (University of Rochester, priority 2023, published 2026).
“Also recorded” adds a separate entry of the source.

What was measured:
inflammatory TMD pain = assay: Place escape/avoidance paradigm (PEAP) pain behavior in inflammatory TMD model; type: in vivo, rat; details: for time spent in the dark half of the PEAP chamber: CFA plus PFI-2 injection
Description: Effect of PFI-2 Mediation on Inflammatory Conditions and Pain: Tmj pain is assessed as meal duration and via Place Escape Avoidance Paradigm (PEAP)-based measures (FIG. 1, Vertebrate Justification section). Testing is performed in both male and female rats as sex differences have been observed in humans and animals. Female animals are tested for the estrous cycle and the results are reported for the di-estrus, estrus, and pro-estrus phases (Kramer, Bellinger, 2009).
Peap Testing: the Chamber Used for the Place Escape Avoidance Paradigm (PEAP) testing is a 30 cm×30 cm acrylic box in which half the box is covered in black cloth. Each individual rat is placed into the chamber; due to their nocturnal circadian rhythm, rodents prefer the dark side of the chamber. Rats on the dark side of the chamber receive a stimulus at the injected side, whereas rats with their head on the clear side of the chamber are stimulated on the contralateral non-injected side with a 60 g filament every 15 seconds. The stimulus is administered below the eye and caudal to the whisker pad. The time spent on the dark side of the box is recorded in 5 min bins, testing is performed for a total of 30 min on the test day and thereafter on a one day a week basis for 8 weeks as previously described (Stinson et al. 2017; 2019).
Injection of PFI-2-Col I, PFI-2-decm Hydrogel and PFI-2-exosome solution into the TMJ: Four groups (SV, SP, CV, and CP) receive injections of the saline plus carrier, saline plus PFI-2 carrier, CFA plus carrier, or CFA plus PFI-2 carrier, respectively. The TMJ injection procedure is described in FIG. 1. Forty-eight hours after the injection of saline or CFA solution, PFI-2 (10 μM) in a carrier, or the carrier alone, is injected every two days, or once within 10 days. The injection times and effect duration of PFI-2 on both inflammatory degeneration and pain are optimized.
PEAP behavior of animals was investigated after administration of saline, CFA, or CFA and a PFI-2 carried by either a Col I hydrogel or a dECM hydrogel.

RSSCs = assay: BrdU labeling and β-gal senescence staining of TNF-α treated RSSCs; type: cell-based, rat; details: RSSCs treated with TNFα
[1] = test system: TNFα-induced cell infiltration; assay: Subcutaneous implantation of coated collagen sponges; type: in vivo; details: sponges coated with TNFα plus PFI-2
Excerpt: In vivo analysis was examined by subcutaneous implantation of collagen sponges coated with PBS, TNF-α, or TNF-α and PFI-2.

SETD7 = target: T1, SETD7 (Homo sapiens, UniProt Q8WTS6); details: Francis et al. 2018; cited from earlier work
T1 sequence (Q8WTS6 1-366): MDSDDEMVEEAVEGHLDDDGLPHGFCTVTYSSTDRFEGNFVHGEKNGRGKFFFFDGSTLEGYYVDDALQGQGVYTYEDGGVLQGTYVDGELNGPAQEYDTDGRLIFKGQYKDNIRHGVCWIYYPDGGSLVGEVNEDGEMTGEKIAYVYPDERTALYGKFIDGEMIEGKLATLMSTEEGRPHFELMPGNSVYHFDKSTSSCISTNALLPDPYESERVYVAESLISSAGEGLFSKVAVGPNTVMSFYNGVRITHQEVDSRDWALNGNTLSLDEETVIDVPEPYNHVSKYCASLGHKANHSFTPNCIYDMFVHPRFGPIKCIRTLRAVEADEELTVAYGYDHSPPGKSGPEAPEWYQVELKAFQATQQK

Question: What does the source list for `O=C([C@@H](Cc1cccc(C(F)(F)F)c1)NS(=O)(=O)c1cc(F)c2c(c1)CCNC2)N1CCCC1` [PFI-2]?
Answer: time spent in the dark half of the PEAP chamber (inflammatory TMD pain; collagen gel (Col I hydrogel) as carrier): significantly rescued; also recorded: significantly increased; time spent in the dark half of the PEAP chamber (inflammatory TMD pain; dECM hydrogel as carrier, compared with collagen carrier): far more significant; also recorded: further improved; inflammatory pain (inflammatory TMD pain; inflammatory TMD model): greatly reduced pain; also recorded: reduction in inflammatory pain; also recorded: reduced inflammatory pain; time on the dark side of PEAP chambers (inflammatory TMD pain; mice subjected to inflammatory temporo-mandibular joint pain): dramatically reduced time; BrdU positive proliferating cells (RSSCs): restored the proliferative potential of inflammation-compromised cells; also recorded: restored cellular proliferation; β-gal+ cell senescence (RSSCs): inhibited TNFα-induced cell senescence; cell infiltration into collagen sponges [1]: reversed inflammatory cell infiltration in tissue implants; also recorded: reversed this effect; extracellular matrix remodeling in collagen sponges [1]: promoted extracellular matrix remodeling; also recorded: promoted ECM remodeling; inflammation and tissue regeneration in periodontal diseases (SETD7): suppresses inflammation and promotes tissue regeneration
